In one assay the test system is myocardial ischemia. Description: Artificially induced acute coronary insufficiency in an awake dog (ST-segment elevation). The assay is classed as in vivo. Particulars: Canis lupus familiaris, 0.1 h, intravenous, 6 min coronary occlusion, groups of ten animals, read-out: DE20 (dose producing a mean reduction of at least 20% of the ST-segment elevation). The text has this: Because of the reduction in the oxygen supply which results from this, the occlusion produces myocardial ischemia which is expressed on the electrocardiogram by a reproducible and quantifiable ST-segment elevation. The anti-ischemic action of a compound results in a reduction of the magnitude of the ST-segment elevation. (P. R. MAROKO and E. BRAUNWALD, Circulation, 53, (1976, Suppl. I), 162-168; S. E. EPSTEIN et al., Circulation, 53, (1976, Suppl. I), 191-197).

Another assay concerns the target T1, α2 -adrenergic receptors (Rattus norvegicus, UniProt P22909).
T1 construct: three different preparations of rat brain membranes; from tissue; host or cells: rat brain membranes
T1 sequence (P22909 1-465): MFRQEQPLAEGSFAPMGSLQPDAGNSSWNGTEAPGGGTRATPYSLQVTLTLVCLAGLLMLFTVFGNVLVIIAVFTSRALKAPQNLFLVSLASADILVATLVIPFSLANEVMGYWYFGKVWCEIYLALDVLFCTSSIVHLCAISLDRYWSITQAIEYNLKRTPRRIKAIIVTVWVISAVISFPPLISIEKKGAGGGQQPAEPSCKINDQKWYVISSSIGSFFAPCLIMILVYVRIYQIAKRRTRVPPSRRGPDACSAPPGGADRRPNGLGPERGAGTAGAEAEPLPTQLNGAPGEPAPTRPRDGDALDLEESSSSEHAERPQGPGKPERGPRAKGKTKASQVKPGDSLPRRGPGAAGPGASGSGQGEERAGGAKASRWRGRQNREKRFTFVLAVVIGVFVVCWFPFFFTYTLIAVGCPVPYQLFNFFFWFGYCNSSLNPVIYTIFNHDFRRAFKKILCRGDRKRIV
Description: Competitive binding assay with [^3 H]clonidine on rat brain membranes. Particulars: 30 minutes incubation, read-out: IC50 (50% inhibition of the binding of [^3 H]clonidine). The text has this: (a) Competitive binding assay with a radioligand. The object of competitive binding assays is to measure the affinity of the compounds of the invention for α2 -adrenoceptors. These conventional experiments involve the competition for binding to α2 -adrenergic receptors between the tested compound on the one hand, and on the other hand, a radioligand which, in this particular case of α2 -adrenergic receptors, is the [^3 H]clonidine which is known to be a specific α2 -adrenergic agonist.
The method used is that of D. C. U'PRICHARD et al., Mol. Pharmacol. 13, (1977), 454-473.
The displacement curves for binding of [^3 H]clonidine have been determined with nine concentrations of compound A, ranging from 10^-4 to 10^-10 mole/l, and with three different preparations of rat brain membranes. The samples were incubated for 30 minutes, and then filtered under reduced pressure using a Whatman GF/B filter. The filters are washed three times with 5 ml of Tris-HCl buffer (pH 7.5 at 0° C.) and then dried for one minute. The radioactivity is measured in an Econofluor (-NEN Corp.) medium. The [^3 H]clonidine (25.5 Ci/mmole) used is provided by Amersham.
The affinity of compound A for the α2 -adrenergic receptors has been calculated from the displacement curves of the [^3 H]clonidine. […]

The target of assay [1] is T2, presynaptic α2 -adrenergic receptors (Cavia porcellus, UniProt Q60474).
T2 construct: Stimulation of a guinea-pig ileum; from tissue; host or cells: guinea-pig ileum longitudinal muscle strips
T2 sequence (Q60474 1-464): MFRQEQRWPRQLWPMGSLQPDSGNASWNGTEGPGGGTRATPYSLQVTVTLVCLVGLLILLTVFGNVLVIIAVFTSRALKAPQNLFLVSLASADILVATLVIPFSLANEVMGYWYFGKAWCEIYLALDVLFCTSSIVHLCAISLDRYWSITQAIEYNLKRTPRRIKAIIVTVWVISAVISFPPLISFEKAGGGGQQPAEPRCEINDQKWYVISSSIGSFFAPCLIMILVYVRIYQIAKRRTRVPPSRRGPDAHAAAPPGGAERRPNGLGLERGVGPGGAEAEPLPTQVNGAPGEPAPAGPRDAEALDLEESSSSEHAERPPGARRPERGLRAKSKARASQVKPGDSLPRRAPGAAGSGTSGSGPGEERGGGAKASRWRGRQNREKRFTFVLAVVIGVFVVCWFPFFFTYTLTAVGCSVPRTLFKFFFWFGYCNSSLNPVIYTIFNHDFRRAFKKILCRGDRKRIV
Nature of the assay: Stimulation of the isolated guinea-pig atria (reduction in tachycardia). The text has this: (b) Stimulation of the isolated guinea-pig atria. The release of noradrenalin at the level of the nerve endings is mediated by a feedback regulating mechanism through the presynaptic α2 -adrenergic receptors. […] Ed. D. S. DAVIES, J. L. REID, Pitman, London.
The electrical stimulation of the isolated guinea-pig atria induces a release of noradrenalin which results in an increase in the rate of the heart beat (tachycardia). This tachycardia is inhibited by an α2 -agonist such as, for example, clonidine, in a proportion which depends on the dose of the agonist used. The action of the α2 -agonist may be limited in the presence of an α2 -specific antagonist such as α-yohimbine.
The in vitro activity of the compounds of the invention on the presynaptic α2 -adrenergic receptors has been studied on the isolated guinea-pig atria, electrically stimulated according to the method described by I. C. MEDGETT et al., Naunyn-Schmiedeberg's Arch. Pharmacol. 304, (1978), 215-221. The compound to be studied is tested in increasing concentrations ranging from 10^-10 to 10^-3 mole/l. The concentration (IC30 in mole/l) which causes a 30% reduction in the maximum tachycardia obtained initially during the electrical stimulation of the atria in the absence of the compound to be tested, is determined.
On the other hand, in the presence of a concentration of 10^-6 mole/l of α-yohimbine, the concentration of compound A necessary to obtain a reduction of 30% in the tachycardia is greater than 10^-7 mole/l.

For orientation: IC50 means the concentration at which inhibition is half-maximal. One may read the IC30 as the point of the concentration-response curve where the effect stands at 30%. On to `Cl.NC(=O)c1cccc(Cc2c[nH]cn2)c1O` [A, 2-hydroxyl-3-[(1H-imidazol-4-yl)methyl]-benzamide hydrochloride], for which the ED20 with myocardial ischemia worked out at 0.03 µmol/kg. Further, the IC50 on α2 -adrenergic receptors was determined as 8.9 nM. Besides, the “concentration necessary to obtain a reduction of 30% in the tachycardia” value in assay [1] (in the presence of 10^-6 mole/l of α-yohimbine) was “greater than 10^-7 mole/l”. Further, the IC30 in assay [1] (isolated guinea-pig atria, electrical stimulation, read-out: IC30 (30% reduction in the maximum tachycardia)) was found to be 0.9 nM.

(Values after patent US4923865A, “Substituted 1-(1H-imidazol-4-yl)alkyl-benzamides as anti-ischemics and as alpha-2-adrenergic receptor agonists” (U C B Societe Anonyme, priority 1988, dated 1990).)
